Test results published in US20050107386A1, “Methods of treating diseases and disorders by targeting multiple kinases” (priority 2003, published 2005).

Legend:
Assay type in all cases: biochemical
Settings in all cases: 3 μM; percent of control kinase activity
ROCK-II(h) = ROCK-II(h) (Homo sapiens, UniProt O75116); test: ROCK-II(h) kinase assay
Method: (§1) Six compounds (presumptive single agents) were tested against a panel of 50 kinases. The results are presented in Table 2; numbers for each kinase indicate the percent of control kinase activity in the presence of a 3μM concentration of the indicated agent.
(§2) Agents that target two or more different kinases are useful in the methods of the invention as described elsewhere herein. Such compounds may be identified, and their effect on certain kinases may be identified, using the assays briefly described below in Examples 4-83. Each of these assays was carried out as described in Davies et al., Biochem. J., 351:95-105 (2000). All assays were carried out at 10 μM ATP unless otherwise noted.
(§3) In a final reaction volume of 25 μl, ROCK-II (h) (5-10 mU) is incubated with 50 mM Tris pH 7.5, 0.1 mM EGTA, 30 μM […] (SEQ ID NO:8), 10 mM MgAcetate and [γ-^33P-ATP] (specific activity approx. 500 cpm/pmol, concentration as required). The reaction is initiated by the addition of Mg^2+ [γ-^33P-ATP]. After incubation for 40 minutes at room temperature, the reaction is stopped by the addition of 5 μl of a 3% phosphoric acid solution. 10 μl of the reaction is then spotted onto a P30 filtermat and washed three times for 5 minutes in 75 mM phosphoric acid and once in methanol prior to drying and scintillation counting.

Rsk3(h) = Rsk3(h) (Homo sapiens, UniProt Q15349); test: Rsk3(h) kinase assay
Method: as §1, §2
as §3, with “μl, Rsk3” for “μl, ROCK-II”, “with 8” for “with 50”, “mM MOPS” for “mM Tris”, “pH 7.0, 0.2” for “pH 7.5, 0.1”, “mM EDTA,” for “mM EGTA,”, “ID NO:11),” for “ID NO:8),”

PRAK(h) = target: T1, PRAK(h) (Homo sapiens, UniProt Q8IW41); test: PRAK(h) kinase assay
T1 sequence (Q8IW41 1-473): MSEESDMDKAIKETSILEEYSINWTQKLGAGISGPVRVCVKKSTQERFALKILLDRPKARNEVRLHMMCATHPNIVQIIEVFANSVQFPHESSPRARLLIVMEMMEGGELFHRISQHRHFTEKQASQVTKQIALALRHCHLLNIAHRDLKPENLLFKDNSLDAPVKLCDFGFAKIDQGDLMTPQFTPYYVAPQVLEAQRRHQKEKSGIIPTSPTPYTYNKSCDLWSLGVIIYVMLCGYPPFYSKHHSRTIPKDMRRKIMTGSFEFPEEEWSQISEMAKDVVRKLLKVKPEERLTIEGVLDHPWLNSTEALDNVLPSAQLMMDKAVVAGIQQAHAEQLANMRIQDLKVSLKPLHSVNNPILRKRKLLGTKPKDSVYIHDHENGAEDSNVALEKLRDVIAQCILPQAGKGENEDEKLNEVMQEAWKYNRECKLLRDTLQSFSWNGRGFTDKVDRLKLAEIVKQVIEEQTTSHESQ
Method: as §1, §2
as §3, with “PRAK” for “ROCK-II”, “Na-β-glycerophosphate” for “Tris”, “NO11),” for “NO:8),”, “50” for “75”

Blk(m) = Blk(m) (Mus musculus, UniProt P16277); test: Blk(m) kinase assay
Method: as §1, §2
(§4) In a final reaction volume of 25 μl, Blk (m) (5-10 mU) is incubated with 50 mM Tris pH 7.5, 0.1 mM EGTA, 0.1 mM NaVanadate, 0.1% β-mercaptoethanol, 0.1 mg/ml poly(Glu, Tyr) 4:1, 10 mM MgAcetate and [γ-^33P-ATP] (specific activity approx. 500 cpm/pmol, concentration as required). The reaction is initiated by the addition of Mg^2+ [γ-^33P-ATP]. After incubation for 40 minutes at room temperature, the reaction is stopped by the addition of 5 μl of a 3% phosphoric acid solution. 10 μl of the reaction is then spotted onto a Filtermat A and washed three times for 5 minutes in 75 mM phosphoric acid and once in methanol prior to drying and scintillation counting.

FGFR3(h) = FGFR3(h) (Homo sapiens, UniProt P22607); test: FGFR3(h) kinase assay
Method: as §1, §2
as §4, with “FGFR3 (h)” for “Blk (m)”, “4:1, 10 mM MnCl2,” for “4:1,”

CDK6/cyclinD3(h) = CDK6/cyclinD3(h) (Homo sapiens, UniProt Q00534); test: CDK6/cyclinD3(h) kinase assay
Method: as §1, §2
In a final reaction volume of 25 μl, CDK6/cyclinD3 (h) (5-10 mU) is incubated with 8 mM MOPS pH 7.0, 0.2 mM EDTA, 0.1 mg/ml histone H1, 10 mM MgAcetate and [γ-33p-ATP] (specific activity approx. 500 cpm/pmol, concentration as required). The reaction is initiated by the addition of Mg^2+ [γ-33P-ATP]. After incubation for 40 minutes at room temperature, the reaction is stopped by the addition of 5 μl of a 3% phosphoric acid solution. 10 μl of the reaction is then spotted onto a P30 filtermat and washed three times for 5 minutes in 75 mM phosphoric acid and once in methanol prior to drying and scintillation counting.

Rsk3(h), sequence (Q15349 whole entry): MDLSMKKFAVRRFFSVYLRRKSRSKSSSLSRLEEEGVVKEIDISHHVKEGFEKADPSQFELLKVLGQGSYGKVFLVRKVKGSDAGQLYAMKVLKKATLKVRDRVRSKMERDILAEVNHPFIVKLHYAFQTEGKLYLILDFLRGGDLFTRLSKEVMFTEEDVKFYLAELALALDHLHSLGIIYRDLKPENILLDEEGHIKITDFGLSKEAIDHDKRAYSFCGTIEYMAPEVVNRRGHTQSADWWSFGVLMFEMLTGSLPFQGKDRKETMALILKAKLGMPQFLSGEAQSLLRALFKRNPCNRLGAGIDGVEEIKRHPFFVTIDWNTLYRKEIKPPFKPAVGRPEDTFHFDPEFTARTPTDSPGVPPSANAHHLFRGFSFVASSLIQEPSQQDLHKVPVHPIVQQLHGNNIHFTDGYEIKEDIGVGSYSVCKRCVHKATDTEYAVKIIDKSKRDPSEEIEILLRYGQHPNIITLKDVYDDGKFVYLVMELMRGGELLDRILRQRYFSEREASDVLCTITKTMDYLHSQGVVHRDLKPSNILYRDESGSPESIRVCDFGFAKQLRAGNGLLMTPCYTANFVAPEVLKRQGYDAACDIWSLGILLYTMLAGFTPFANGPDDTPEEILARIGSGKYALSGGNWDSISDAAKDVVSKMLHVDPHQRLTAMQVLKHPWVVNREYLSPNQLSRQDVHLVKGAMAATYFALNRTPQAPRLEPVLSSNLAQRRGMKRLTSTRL
CDK6/cyclinD3(h), sequence (Q00534 whole entry): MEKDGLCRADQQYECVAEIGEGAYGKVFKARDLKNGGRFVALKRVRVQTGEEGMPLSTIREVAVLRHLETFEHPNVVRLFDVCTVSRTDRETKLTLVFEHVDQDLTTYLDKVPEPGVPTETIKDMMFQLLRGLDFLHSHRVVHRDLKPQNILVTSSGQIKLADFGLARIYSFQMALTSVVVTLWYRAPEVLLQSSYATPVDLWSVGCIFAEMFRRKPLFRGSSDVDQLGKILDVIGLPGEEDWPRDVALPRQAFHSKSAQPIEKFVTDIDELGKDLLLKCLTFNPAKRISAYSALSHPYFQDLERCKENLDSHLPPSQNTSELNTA
CDK6/cyclinD3(h), sequence (P30281 whole entry partner): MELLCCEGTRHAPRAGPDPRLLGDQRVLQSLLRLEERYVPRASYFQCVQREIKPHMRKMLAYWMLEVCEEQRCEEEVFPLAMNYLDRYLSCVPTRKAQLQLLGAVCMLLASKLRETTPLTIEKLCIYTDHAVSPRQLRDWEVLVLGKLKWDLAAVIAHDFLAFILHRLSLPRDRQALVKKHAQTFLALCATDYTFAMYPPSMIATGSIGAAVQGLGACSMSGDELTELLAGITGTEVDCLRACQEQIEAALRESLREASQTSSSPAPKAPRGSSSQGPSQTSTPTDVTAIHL
ROCK-II(h), sequence (O75116 whole entry): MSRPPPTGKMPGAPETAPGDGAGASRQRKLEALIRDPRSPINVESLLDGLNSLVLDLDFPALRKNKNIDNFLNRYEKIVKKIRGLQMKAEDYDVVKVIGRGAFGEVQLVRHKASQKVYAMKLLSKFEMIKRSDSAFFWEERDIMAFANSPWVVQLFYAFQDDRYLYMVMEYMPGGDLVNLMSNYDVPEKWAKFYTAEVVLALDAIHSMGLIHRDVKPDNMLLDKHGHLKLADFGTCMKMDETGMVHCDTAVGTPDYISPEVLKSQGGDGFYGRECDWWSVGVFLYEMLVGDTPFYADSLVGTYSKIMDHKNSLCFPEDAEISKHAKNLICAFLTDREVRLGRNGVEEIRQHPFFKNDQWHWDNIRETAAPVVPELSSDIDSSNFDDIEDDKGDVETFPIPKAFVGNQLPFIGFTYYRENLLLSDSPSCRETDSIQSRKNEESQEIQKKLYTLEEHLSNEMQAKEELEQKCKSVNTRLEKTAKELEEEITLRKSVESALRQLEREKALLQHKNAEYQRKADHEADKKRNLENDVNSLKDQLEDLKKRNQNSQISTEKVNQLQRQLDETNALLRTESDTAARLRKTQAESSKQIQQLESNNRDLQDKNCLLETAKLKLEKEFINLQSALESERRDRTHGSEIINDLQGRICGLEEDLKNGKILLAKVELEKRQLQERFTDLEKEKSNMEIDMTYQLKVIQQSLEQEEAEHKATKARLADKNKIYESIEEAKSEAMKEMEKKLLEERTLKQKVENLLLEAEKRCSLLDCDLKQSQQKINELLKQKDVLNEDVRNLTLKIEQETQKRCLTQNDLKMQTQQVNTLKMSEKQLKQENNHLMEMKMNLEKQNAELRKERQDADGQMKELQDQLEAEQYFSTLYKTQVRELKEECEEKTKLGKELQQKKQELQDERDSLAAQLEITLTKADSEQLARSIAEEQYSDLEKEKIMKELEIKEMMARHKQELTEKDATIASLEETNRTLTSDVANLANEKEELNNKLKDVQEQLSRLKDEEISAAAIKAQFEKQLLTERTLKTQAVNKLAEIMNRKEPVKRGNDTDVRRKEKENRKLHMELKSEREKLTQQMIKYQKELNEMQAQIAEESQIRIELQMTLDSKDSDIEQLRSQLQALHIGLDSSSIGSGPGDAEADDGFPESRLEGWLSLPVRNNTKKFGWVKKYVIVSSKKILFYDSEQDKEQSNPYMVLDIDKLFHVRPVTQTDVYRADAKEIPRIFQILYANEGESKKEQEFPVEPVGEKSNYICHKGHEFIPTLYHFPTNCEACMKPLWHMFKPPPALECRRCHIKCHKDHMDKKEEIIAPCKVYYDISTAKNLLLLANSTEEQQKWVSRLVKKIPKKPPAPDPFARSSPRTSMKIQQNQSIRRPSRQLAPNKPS
FGFR3(h), sequence (P22607 23-806): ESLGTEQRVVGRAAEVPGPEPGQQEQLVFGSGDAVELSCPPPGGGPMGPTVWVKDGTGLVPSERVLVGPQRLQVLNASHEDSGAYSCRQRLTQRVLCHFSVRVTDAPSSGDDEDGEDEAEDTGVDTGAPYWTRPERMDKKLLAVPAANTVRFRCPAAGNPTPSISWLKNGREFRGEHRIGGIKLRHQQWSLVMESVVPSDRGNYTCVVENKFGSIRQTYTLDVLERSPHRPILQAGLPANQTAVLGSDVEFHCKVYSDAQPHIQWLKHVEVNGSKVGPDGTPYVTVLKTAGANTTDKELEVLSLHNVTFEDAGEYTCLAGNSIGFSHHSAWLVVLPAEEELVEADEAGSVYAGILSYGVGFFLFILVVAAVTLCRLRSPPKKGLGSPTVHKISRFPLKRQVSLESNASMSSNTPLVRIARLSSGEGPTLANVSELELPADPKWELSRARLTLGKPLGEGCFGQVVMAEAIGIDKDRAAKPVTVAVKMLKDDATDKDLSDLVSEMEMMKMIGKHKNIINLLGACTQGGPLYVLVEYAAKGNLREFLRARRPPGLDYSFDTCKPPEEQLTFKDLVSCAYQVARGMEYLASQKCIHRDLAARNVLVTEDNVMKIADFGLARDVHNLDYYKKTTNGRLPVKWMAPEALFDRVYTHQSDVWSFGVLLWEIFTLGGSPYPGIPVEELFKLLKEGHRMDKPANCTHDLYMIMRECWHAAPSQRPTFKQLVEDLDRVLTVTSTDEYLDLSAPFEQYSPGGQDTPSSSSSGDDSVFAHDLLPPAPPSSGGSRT
Blk(m), sequence (P16277 whole entry): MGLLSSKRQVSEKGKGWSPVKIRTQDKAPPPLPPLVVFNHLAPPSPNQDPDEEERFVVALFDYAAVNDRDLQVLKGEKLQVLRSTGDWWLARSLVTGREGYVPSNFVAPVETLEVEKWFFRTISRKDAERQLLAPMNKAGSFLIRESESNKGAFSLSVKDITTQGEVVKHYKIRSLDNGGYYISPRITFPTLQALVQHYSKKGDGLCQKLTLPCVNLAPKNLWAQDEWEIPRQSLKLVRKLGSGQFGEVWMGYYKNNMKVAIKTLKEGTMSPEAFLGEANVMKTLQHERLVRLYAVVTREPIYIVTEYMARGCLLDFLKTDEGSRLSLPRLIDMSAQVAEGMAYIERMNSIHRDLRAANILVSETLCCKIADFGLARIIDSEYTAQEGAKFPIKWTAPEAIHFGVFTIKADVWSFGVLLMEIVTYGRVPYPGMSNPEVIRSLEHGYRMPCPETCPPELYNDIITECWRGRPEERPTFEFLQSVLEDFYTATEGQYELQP

| Inhibitory activity (% of control), ROCK-II(h) (ROCK-II(h)) | Inhibitory activity (% of control), Rsk3(h) (Rsk3(h)) | Inhibitory activity (% of control), PRAK(h) (PRAK(h)) | Inhibitory activity (% of control), Blk(m) (Blk(m)) | Inhibitory activity (% of control), FGFR3(h) (FGFR3(h)) | Inhibitory activity (% of control), CDK6/cyclinD3(h) (CDK6/cyclinD3(h)) | Compound |
| --- | --- | --- | --- | --- | --- | --- |
| 2 % of control | 5 % of control | 6 % of control | 11 % of control | 5 % of control | 59 % of control | CC(C)Cc1nc(-c2ccc3[nH]nc(-c4ccc5cc(OCCN6CCCC6)ccc5c4)c3c2)n[nH]1 [CC002, 5-(5-Isobutyl-1H-[1,2,4]Triazol-3-yl)-3-[6-(2-Pyrrolidin-1-yl-Ethoxy)-Naphthalen-2-yl]-1H-Indazole] |
| 13 % of control | 39 % of control | 12 % of control | 60 % of control | 33 % of control | 63 % of control | Fc1ccc(-c2n[nH]c3ccc(-c4n[nH]c(C5CCCC5)n4)cc23)cc1 [CC006, 5-(5-Cyclopentyl-1H-[1,2,4]triazol-3-yl)-3-(4-fluoro-phenyl)-1H-indazole, reference compound] |
| 2 % of control | 4 % of control | 10 % of control | 4 % of control | 5 % of control | 29 % of control | CCN1CCC[C@H]1COc1ccc2cc(-c3n[nH]c4ccc(-c5nc(CC(C)(C)C)n[nH]5)cc34)ccc2c1 [CC005, 2-[((2s)-1-ethylpyrrolidin-2-yl)methoxy]-6-{5-[3-(2,2-Dimethylpropyl)(1H-1,2,4,-triazol-5-yl)](1H-indazol-3-yl)}naphthalene] |
| 5 % of control | 43 % of control | 24 % of control | 43 % of control | 77 % of control | 80 % of control | CC(C)(C)Cc1nc(-c2ccc3[nH]nc(-c4ccc5cc(OCc6ccccn6)ccc5c4)c3c2)n[nH]1 [CC004, 5-[5-(2,2-Dimethyl-propyl)-1H-[1,2,4]triazol-3-yl]-3-[6-(pyridine-2-ylmethoxy)-naphthalen-2-yl]-1H-indazole] |
| 69 % of control | 38 % of control | 0 % of control | 76 % of control | 54 % of control | 87 % of control | O=C(NC1CCCC1)c1cccc(-c2n[nH]c3ccc(-c4nc[nH]n4)cc23)c1 [CC007, 3-(5-(1H-1,2,4-triazol-3-yl)(1H-indazol-3-yl))phenyl-N-cyclopentylcarboxamide, reference compound] |

| Compound | Inhibitory activity (% of control), ROCK-II(h) (ROCK-II(h)) | Inhibitory activity (% of control), Rsk3(h) (Rsk3(h)) | Inhibitory activity (% of control), PRAK(h) (PRAK(h)) | Inhibitory activity (% of control), Blk(m) (Blk(m)) | Inhibitory activity (% of control), FGFR3(h) (FGFR3(h)) | Inhibitory activity (% of control), CDK6/cyclinD3(h) (CDK6/cyclinD3(h)) |
| --- | --- | --- | --- | --- | --- | --- |
| COc1ccc2cc(-c3n[nH]c4ccc(-c5n[nH]c(CN6CCOCC6)n5)cc34)ccc2c1 [CC001, 3-(6-Methoxynaphthalen-2-yl)-5-(5-Morpholin-4-Ylmethyl-1H-[1,2,4]Triazol-3-yl)-1H-Indazole] | 4 % of control | 4 % of control | 12 % of control | 25 % of control | 33 % of control | 82 % of control |
